Results from ChEMBL document CHEMBL1201862, “PubChem BioAssay data set” (2004).
The source made the active and inactive calls.

How the values were obtained:
Aspartyl aminopeptidase = target: T1, Aspartyl aminopeptidase (Plasmodium falciparum 3D7, UniProt Q8I2J3)
T1 sequence (Q8I2J3 whole entry): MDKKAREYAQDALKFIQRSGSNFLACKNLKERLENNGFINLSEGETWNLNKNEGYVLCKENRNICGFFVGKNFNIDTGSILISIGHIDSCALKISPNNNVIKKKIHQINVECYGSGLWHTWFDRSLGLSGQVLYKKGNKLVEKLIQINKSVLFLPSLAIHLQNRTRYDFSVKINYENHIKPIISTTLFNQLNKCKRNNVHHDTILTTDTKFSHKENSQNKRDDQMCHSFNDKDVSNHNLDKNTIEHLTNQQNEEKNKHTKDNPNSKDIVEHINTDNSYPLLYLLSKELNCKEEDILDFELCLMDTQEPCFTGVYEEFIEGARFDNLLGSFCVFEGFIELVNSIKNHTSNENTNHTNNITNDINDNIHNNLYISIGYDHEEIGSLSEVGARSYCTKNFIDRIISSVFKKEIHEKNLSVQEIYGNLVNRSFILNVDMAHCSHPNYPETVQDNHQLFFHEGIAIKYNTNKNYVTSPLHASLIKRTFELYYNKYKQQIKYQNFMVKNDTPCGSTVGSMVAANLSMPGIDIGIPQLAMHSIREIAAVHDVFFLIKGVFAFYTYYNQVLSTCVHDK

Procathepsin L = Procathepsin L (Homo sapiens, UniProt P07711)
NS3 = NS3 (Hepatitis C virus, UniProt A3EZJ3); assay: PubChem AID 2173; design: species or system Hepacivirus hominis
fMet-Leu-Phe receptor = target: T2, fMet-Leu-Phe receptor (Homo sapiens, UniProt P21462); assay: formyl peptide receptor binders – dose response (AID 519); type: functional
T2 sequence (P21462 whole entry): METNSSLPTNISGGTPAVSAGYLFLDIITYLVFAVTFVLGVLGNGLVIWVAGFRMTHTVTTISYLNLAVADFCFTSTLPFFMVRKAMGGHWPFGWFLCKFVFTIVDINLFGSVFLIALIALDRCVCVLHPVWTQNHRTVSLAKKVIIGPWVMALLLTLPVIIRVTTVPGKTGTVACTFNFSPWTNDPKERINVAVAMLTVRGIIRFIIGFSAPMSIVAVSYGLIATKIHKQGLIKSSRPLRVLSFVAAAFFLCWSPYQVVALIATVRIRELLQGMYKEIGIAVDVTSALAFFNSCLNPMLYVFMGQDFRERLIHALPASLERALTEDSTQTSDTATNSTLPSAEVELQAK

BJ [1] = assay: BJ-TERT fibroblast viability loss – cell-based, RAS-independent, luminescence, dose response (AID 1933); type: functional; details: Homo sapiens
[2] = target: T3, Luciferin 4-monooxygenase (Photinus pyralis, UniProt P08659); assay: Counter Screen for Luciferase-based Assay Positives. [Related pubchem assays: 620, 618, 411 ]
BJ [3] = assay: cells; type: functional, cell-based; details: Homo sapiens
[4] = target: T3, Luciferin 4-monooxygenase; assay: inhibition of purified Photinus pyralis luciferase – biochemical, luminescence, dose response (AID 1891)
[5] = Luminescence Cell-Based Dose Confirmation HTS to Identify Inhibitors of Platelet Dense Granule Release. [Related pubchem assays: 1663 (Primary HTS), 1678 (Summary of Project)]; type: functional
HT-1080 = assay: HT1080 cell viability loss – fluorescence readout (AID 620); type: functional, cell-based; details: Homo sapiens
BJ [6] = assay: BJ-TERT-LT-ST fibroblast viability loss – cell-based, RAS-independent, luminescence, dose response (AID 1935); type: functional; details: Homo sapiens;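 also: BJ fibroblasts immortalized with TERT plus LT and ST oncogenes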
[7] = DRD fibroblast viability loss – cell-based, non-viral oncogenic, luminescence, dose response (AID 1934); type: functional; details: Homo sapiens
[8] = target: Cyclin-dependent kinase 5/CDK5 activator 1 (Homo sapiens, UniProt Q00535); assay: blockade of human CDK5 activity – biochemical, cherry-picked samples, set 2, dose response (AID 504545)
BJ [9] = assay: growth inhibition of engineered Ras-driven BJ cells – cell-based, alamar blue fluorescence, cherrypicked samples, dose response (AID 2631); type: functional; details: Homo sapiens;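 also: confirmatory dose-response assay in RAS-dependent BJ fibroblasts engineered with TERT, LT and ST, with cytotoxicity read by fluorescence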
[10] = A Cell Based Secondary Assay To Explore Cytotoxicity of Compounds that Sensitize Mycobacterium Tuberculosis to Beta-Lactam Antibiotics.; type: functional
HEK293 = assay: Fluorescence-based counterscreen for potentiators or agonists of NPY-Y2: cell-based high-throughput dose response assay to identify inhibitors of cyclic nucleotide gated ion channel (CNGC) activity. In this assay, the parental HEK293 cell line transfected with a cyclic-nucleotide gated ion channel (CNGC)-based cAMP sensor is used to measure inhibition of isoproterenol-induced CNGC activity by test compound.; type: functional; details: Homo sapiens;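 also: stimulus is 1 µM isoproterenol at EC100 plus PDE inhibitor Ro 20-1724 at 25 µM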
[11] = target: T4, Neuropeptide Y receptor type 2 (Homo sapiens, UniProt P49146); assay: Fluorescence-based cell-based high-throughput dose response assay for agonists of NPY-Y2. [Related pubchem assays: 1703 (Screening assay (CNGC inhibitors).), 1359 (Screening assay (NPY-Y2 potentiators or agonists).), 1304 (Screening assay (NPY-Y1 potentiators or agonists).), 1710 (Screening assay (NPY-Y2 agonists).), 1791 (Summary AID.)]; type: functional
T4 sequence (P49146 whole entry): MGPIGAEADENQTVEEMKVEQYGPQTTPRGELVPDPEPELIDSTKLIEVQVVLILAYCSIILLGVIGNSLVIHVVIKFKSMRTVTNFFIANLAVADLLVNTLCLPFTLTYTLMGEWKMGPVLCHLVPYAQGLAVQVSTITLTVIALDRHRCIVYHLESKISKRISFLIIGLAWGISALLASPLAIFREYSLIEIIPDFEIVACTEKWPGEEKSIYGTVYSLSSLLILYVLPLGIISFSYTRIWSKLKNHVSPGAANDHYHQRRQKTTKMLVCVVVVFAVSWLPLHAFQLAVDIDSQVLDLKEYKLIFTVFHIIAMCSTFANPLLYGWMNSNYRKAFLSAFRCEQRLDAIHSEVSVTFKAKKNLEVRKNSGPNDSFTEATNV

[12] = target: T5, Neuropeptide Y receptor type 1 (Homo sapiens, UniProt P25929); assay: Fluorescence-based counterscreen for agonists of NPY-Y2: cell-based high-throughput dose response assay for agonists of NPY-Y1.; type: functional
T5 sequence (P25929 whole entry): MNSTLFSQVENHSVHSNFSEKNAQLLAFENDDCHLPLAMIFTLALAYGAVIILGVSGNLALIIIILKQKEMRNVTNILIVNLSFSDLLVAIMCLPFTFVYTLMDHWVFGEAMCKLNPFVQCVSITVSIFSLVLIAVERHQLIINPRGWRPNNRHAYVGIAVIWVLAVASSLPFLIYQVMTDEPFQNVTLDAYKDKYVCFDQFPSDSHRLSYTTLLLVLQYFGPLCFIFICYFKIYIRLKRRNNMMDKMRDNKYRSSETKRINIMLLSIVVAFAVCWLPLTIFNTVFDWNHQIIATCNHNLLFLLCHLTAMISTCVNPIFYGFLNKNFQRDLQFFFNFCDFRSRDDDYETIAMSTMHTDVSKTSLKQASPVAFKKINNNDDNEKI

Aminopeptidase N = target: T6, Aminopeptidase N (Plasmodium falciparum FcB1/Columbia, UniProt O96935); assay: malaria alanyl aminopeptidase activity blockers – biochemical, fluorogenic H-Leu-NHMec substrate, 1536-well (AID 1445); design: species or system Plasmodium falciparum 3D7, 3D7
T6 sequence (O96935 whole entry): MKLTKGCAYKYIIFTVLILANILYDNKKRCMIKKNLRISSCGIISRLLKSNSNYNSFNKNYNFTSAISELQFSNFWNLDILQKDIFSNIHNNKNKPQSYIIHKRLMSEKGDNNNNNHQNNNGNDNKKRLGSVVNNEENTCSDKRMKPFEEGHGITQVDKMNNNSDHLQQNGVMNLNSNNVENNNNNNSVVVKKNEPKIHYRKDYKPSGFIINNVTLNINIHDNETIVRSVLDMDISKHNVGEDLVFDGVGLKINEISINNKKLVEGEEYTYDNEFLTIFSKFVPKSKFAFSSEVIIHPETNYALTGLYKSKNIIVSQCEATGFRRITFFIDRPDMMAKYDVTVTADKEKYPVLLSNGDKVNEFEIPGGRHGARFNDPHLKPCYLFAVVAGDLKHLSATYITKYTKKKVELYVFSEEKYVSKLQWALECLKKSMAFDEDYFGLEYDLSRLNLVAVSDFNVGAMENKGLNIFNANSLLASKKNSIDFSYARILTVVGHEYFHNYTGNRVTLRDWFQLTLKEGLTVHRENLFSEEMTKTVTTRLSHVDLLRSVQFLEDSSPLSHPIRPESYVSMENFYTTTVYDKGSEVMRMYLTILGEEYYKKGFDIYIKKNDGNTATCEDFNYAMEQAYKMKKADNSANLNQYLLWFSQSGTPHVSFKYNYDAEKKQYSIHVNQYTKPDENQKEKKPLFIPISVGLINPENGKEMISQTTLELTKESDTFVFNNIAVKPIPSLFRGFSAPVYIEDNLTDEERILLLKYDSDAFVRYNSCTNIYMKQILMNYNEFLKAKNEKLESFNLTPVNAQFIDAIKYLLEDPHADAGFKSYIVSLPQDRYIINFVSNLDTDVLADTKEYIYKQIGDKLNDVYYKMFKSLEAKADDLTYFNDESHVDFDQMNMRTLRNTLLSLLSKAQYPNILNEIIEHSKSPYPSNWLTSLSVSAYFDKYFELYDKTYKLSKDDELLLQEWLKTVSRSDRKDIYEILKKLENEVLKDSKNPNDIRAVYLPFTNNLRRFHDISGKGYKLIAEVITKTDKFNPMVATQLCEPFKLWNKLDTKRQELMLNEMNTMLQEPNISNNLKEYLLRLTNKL

[13] = CCR5-tropic HIV-1 fusion blockers – cell-based, CCR5-tropic Env, dose response (AID 2279); type: functional
[14] = target: T7, Short transient receptor potential channel 4 (Mus musculus, UniProt Q9QUQ5); assay: block of DAMGO-driven TRPC4 calcium entry – cell-based, HEK293 TRPC4/mu-opioid, Fluo-4 calcium, dose response (AID 434942); type: functional;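 also: potency of inhibitors blocking the TRPC4 calcium response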
T7 sequence (Q9QUQ5 whole entry): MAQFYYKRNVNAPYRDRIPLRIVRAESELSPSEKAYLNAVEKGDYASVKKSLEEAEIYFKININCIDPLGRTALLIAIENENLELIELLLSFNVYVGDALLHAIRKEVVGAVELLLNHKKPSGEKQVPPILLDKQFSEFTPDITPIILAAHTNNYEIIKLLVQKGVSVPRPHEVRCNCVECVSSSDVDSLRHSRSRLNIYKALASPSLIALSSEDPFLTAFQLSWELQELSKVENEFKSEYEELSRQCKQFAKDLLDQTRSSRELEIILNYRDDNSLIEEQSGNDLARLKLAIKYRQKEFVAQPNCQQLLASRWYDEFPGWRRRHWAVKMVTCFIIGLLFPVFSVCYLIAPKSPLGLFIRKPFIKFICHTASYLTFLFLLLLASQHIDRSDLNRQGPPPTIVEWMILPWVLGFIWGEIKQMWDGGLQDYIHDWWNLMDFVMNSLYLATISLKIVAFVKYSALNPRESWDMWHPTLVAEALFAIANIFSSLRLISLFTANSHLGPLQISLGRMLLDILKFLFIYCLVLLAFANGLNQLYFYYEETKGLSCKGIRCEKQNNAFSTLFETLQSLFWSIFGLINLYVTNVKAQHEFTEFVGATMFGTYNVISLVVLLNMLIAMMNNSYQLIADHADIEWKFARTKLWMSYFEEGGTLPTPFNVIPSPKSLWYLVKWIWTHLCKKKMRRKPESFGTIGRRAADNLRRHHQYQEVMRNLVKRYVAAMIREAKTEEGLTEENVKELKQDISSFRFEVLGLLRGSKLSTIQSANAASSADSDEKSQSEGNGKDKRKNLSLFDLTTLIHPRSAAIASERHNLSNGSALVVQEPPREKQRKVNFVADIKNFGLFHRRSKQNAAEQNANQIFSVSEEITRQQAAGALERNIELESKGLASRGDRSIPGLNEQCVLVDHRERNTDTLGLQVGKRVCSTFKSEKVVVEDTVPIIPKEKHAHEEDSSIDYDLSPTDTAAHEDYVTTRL

Staphylococcus aureus = assay: Inhibitors of Bacterial Quorum Sensing Structure Activity Relationship (SAR) Analysis: Dose Response Assay. [Related pubchem assays: 700, 527 ]; type: functional, organism-based

T3 sequence (P08659 whole entry): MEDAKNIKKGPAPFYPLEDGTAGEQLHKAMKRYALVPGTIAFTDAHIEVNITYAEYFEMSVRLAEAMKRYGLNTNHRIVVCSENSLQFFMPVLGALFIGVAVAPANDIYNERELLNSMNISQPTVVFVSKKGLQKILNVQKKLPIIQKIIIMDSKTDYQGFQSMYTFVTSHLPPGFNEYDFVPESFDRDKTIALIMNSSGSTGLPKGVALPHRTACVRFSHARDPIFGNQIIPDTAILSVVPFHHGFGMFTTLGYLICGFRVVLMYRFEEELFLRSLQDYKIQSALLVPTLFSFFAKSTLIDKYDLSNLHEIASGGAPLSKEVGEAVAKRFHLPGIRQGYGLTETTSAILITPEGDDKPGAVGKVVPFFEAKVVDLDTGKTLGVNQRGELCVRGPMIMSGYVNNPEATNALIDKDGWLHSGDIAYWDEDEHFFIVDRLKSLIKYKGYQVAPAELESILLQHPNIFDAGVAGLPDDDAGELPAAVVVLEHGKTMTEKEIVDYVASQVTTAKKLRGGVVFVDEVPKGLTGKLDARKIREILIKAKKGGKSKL
Chain of NS3 (A3EZJ3 whole entry): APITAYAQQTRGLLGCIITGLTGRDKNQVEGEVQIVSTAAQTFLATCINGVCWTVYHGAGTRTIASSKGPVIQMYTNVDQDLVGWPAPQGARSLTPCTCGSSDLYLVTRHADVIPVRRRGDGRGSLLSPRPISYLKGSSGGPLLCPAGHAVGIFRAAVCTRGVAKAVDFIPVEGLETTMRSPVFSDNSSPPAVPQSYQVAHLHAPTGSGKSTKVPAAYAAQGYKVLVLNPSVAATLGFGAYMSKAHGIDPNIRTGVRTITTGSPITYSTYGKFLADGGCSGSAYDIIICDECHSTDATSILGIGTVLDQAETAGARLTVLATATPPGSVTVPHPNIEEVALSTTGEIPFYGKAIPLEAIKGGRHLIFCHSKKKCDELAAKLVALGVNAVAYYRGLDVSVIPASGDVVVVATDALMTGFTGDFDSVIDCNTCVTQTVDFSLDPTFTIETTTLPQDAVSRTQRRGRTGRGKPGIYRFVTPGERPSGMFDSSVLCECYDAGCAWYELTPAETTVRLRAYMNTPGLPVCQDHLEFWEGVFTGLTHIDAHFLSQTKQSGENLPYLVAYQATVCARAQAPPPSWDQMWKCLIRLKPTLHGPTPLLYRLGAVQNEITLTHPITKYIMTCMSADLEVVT
Chain of Procathepsin L (P07711 whole entry): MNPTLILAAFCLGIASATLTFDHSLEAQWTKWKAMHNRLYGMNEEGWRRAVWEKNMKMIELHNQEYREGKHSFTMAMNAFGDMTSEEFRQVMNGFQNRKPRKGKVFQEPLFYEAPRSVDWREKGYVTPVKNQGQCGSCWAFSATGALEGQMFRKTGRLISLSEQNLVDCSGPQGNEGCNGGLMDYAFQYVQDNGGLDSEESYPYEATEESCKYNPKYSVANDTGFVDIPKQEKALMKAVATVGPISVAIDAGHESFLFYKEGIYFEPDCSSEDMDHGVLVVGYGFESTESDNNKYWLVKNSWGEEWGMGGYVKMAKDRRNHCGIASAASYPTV
Chain of Cyclin-dependent kinase 5/CDK5 activator 1 (Q00535 whole entry): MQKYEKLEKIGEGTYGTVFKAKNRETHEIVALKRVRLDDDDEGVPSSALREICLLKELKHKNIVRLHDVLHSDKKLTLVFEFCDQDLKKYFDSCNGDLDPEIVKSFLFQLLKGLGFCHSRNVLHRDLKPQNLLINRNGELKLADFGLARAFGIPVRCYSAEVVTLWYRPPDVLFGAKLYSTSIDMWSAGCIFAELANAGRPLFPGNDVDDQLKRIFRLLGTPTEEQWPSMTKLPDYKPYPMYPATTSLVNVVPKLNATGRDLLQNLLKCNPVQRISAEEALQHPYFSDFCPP
Chain of Cyclin-dependent kinase 5/CDK5 activator 1 (Q15078 whole entry, further chain): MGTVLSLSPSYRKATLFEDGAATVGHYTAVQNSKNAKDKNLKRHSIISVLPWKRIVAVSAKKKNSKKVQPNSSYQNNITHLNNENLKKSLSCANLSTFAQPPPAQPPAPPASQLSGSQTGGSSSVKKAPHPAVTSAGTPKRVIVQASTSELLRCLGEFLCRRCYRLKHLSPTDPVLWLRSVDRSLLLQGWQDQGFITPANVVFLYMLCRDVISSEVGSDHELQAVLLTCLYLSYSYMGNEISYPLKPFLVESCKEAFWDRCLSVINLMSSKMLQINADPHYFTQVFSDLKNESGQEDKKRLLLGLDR

Compound: O=C(O)c1ccc(O)c(O)c1 [PROTOCATECHUIC ACID]
- IC50 (Aspartyl aminopeptidase): 0.479 µM (active)
- IC50 (Procathepsin L): > 59.6 µM (not active)

Compound: CCOc1ccc(C(=O)C2=C(O)C(=O)N(c3nc(C)c(C)s3)C2c2ccco2)cc1 (configuration not stated)
- IC50 (NS3): 6.35 µM (active)
- Ki (fMet-Leu-Phe receptor): 57.7 µM (inactive)

Compound: COc1ccc(-c2cc3nc(C)cc(N)n3n2)cc1
- EC50 (BJ [1]): 3.85 µM (inconclusive)
- EC50 [2]: 2.85 µM (active)
- EC50 (BJ [3]): 4.45 µM (active)
- EC50 [4]: 0.513 µM (active)
- EC50 [5]: 0.621 µM (active)
- EC50 (HT-1080): > 50 µM (not active)
- EC50 (BJ [6]): 17.6 µM (active)
- EC50 [7]: 6.14 µM (active)
- AC50 [8]: 17.5 µM (active)
- EC50 (BJ [9]): > 133 µM (inactive)

Compound: O=C1/C(=C/c2ccncc2)CCc2ccccc21
- CC50 [10]: 35.4 µM (active)

Compound: NC(=O)c1ccc2nc(NC(=O)c3ccc(N)cc3)sc2c1
- EC50 (HEK293): > 35.4 µM (not active)
- EC50 [11]: > 35.4 µM (not active)
- EC50 [12]: > 35.4 µM (not active)

Compound: COc1cc(/C=C2\SC(=O)N(c3ccccc3Cl)C2=O)cc([N+](=O)[O-])c1O
- IC50 (Aminopeptidase N): 65.8 µM (active)
- IC50 [13]: 42.5 µM (active)
- EC50 [14]: 1.06 µM (active)

Compound: CCc1oc2ccccc2c1C(=O)c1ccc(O)cc1 [BENZARONE]
- IC50 (Staphylococcus aureus): 1.29 µM (active)
